Tests used:
Assay type in all cases: in vivo, human
plasma prekallikrein = experiment: Phase 1 study, ex vivo DXS-stimulated cleavage of plasma prekallikrein (Wes); settings: 600 mg capsules, up to 12 hrs post-dose
Excerpt: (§1) DXS-stimulated cleavage of plasma prekallikrein and Factor XII (FXII) were quantified by capillary-based immunoassay on the Wes System (ProteinSimple) analogously.

[1] = Phase 1 multiple dose study, safety, tolerability and ECG; settings: total 1800 mg, healthy adults
Method: This was a phase 1, double-blind, placebo-controlled, multiple-dose, multiple-cohort study to evaluate safety and tolerability of the compound as well as of the ECG effects of the compound formulated as 100 mg Film Coated Tablets in healthy adult male and female subjects.
Four (4) cohorts were evaluated. Cohorts 1, 2 and 3 included 8 subjects each. Cohort 4 included 18 subjects. Every attempt was made to include an equal number of male and female subjects in each cohort.
During the study, oral doses of 600 mg of the compound as Film Coated Tablets (six 100 mg tablets) or 6 matching placebo tablets were administered once every 8 hours (Cohort 1) every 4 hours (Cohort 2), or every 2 hours (Cohort 3 and 4) to healthy adult male and female subjects up to a total dose of 1800 mg. In Cohorts 1, 2 and 3, 6 subjects received the compound as 100 mg Film Coated Tablets and 2 subjects received the placebo for a total of 8 subjects per cohort. In Cohort 4, 12 subjects received the compound as 100 mg Film Coated Tablets and 6 subjects received the placebo for a total of 18 subjects.
A Holter monitor was attached to each subject in order to continuously record ECGs. The monitor was attached 1 hour before the first dose and remained attached until after the final blood sample collection. The electrodes for the Holter monitor were checked by a member of the clinic staff at appropriate intervals to ensure they were attached.

[2] = Phase 2 study, safety (drug-related TEAEs)
Excerpt: Safety Variables: • AEs, including serious adverse events (SAEs). • Laboratory test results (clinical chemistry, hematology, coagulation, and urinalysis). • Vital signs (SBP, DBP, PR, RR, body temperature). • Physical examination findings. • ECG results. • Pregnancy test (female subjects of child-bearing potential).
AEs were coded using the Medical Dictionary for Regulatory Activities (MedDRA) dictionary (v21.0 or higher) and classified by preferred term and system organ class (SOC). Listings of treatment-emergent adverse events (TEAEs), serious TEAEs, and TEAEs causing premature discontinuation will be provided by sequence group, and further classified by TEAE severity and relationship to study drug.

HK = experiment: Phase 1 study, ex vivo DXS-stimulated cleavage of HK (Wes capillary immunoassay); settings: 600 mg capsules, up to 12 hrs post-dose
Method: DXS-stimulated cleavage of HK, in undiluted plasma was quantified by capillary-based immunoassay on the Wes System (ProteinSimple) using monoclonal anti-HK antibody and chemiluminescence-based detection. Plasma kallikrein mediated HK cleavage in undiluted citrated human plasma was induced by contact system activation with DXS (6.25 μg/ml) at 4° C. in selected samples from the SAD phase.

Factor XII (FXII) = experiment: Phase 1 study, ex vivo DXS-stimulated cleavage of Factor XII (Wes); settings: 600 mg capsules, up to 12 hrs post-dose
Excerpt: as §1

[3] = 3 x 600 mg every 8, 4 or 2 hours

COCc1nn(Cc2ccc(Cn3ccccc3=O)cc2)cc1C(=O)NCc1nccc(OC)c1F [compound of Formula A, N-[(3-fluoro-4-methoxypyridin-2-yl)methyl]-3-(methoxymethyl)-1-({4-[(2-oxopyridin-1-yl)methyl]phenyl}methyl)pyrazole-4-carboxamide]
effect on PPK cleavage (plasma prekallikrein): reduces PPK cleavage | serious adverse events [1, 3]: No serious adverse events | severity of reported adverse events [1, 3]: mild | effects on ECG parameters ([1]; 3 x 600 mg): No clinically relevant effects on the studied ECG parameters | on-treatment drug-related TEAE, number of events ([2]; Part 1, open-label phase): 8 | patients with on-treatment drug-related TEAE ([2]; Part 1, open-label phase): 5 patients | on-treatment drug-related TEAE, number of events ([2]; Part 2, crossover phase): 3 | patients with on-treatment drug-related TEAE ([2]; Part 2, crossover phase): 5.2% | effect on HK cleavage (HK): reduces HK cleavage | effect on generation of FXIIa (Factor XII (FXII)): reduces the generation of FXIIa
